Values quoted from earlier work, collected in article PMC11579209, “Population pharmacokinetics and exposure–response relationships of maribavir in transplant recipients with cytomegalovirus infection” (Journal of Pharmacokinetics and Pharmacodynamics, 2024).

How the values were obtained:
[1] = design: method as in PMID 12654667, doi:10.1016/j.bbmt.2018.12.600; details: metabolite of maribavir; cited from earlier work
CMV = test system: CMV; design: method as in PMID 34674258; details: through Week 24 or Week 14; cited from earlier work

| SMILES | Pharmacological activity of metabolite [1] | Exposure dependency of clinically significant CMV infection (CS-CMVi) (CMV) |
| --- | --- | --- |
| Nc1nc2cc(Cl)c(Cl)cc2n1[C@H]1O[C@@H](CO)[C@H](O)[C@@H]1O [VP44469] | pharmacologically inactive | – |
| COc1cccc(N2CCN(C3=Nc4c(F)cccc4[C@H](CC(=O)O)N3c3cc(C(F)(F)F)ccc3OC)CC2)c1 [letermovir] | – | no significant exposure dependencies |
